{
  "source": "patent US20060040870A1",
  "about": "“Enhancement of apoptosis by caspase-9 inhibitors” (priority 2004, published 2006)",
  "key": {"NALM-6 cells": {"tested_on": "NALM-6 cells", "assay": "Apoptosis by Annexin V staining and flow cytometry, NALM-6", "type": "cell-based", "conditions": "NALM-6, 50 μM, 18 hours", "method": "(§1) FIG. 4 is a pair of graphs showing the effect of […] on various cell lines, as determined by Annexin V staining and flow cytometry. The cells included the B-cell precursor ALL cell lines […], and NALM-6, the RAMOS, RAJI, and DAUDI Burkitt lymphoma cell lines, the CCRF-CEM, JURKAT, and H9 T lymphoma cell lines, the K-562 erythroleukemia cell line, and resting or activated (i.e., CD3/CD28 cross-linked) normal human T cells. […] Flow cytometry. Quantitation of apoptotic events was conducted using a FACS Calibur (BD Immunocytometry Systems). All analyses were conducted on cells with lymphoid light scatter characteristics (i.e., low to medium forward scatter and low 90° side scatter). iii. Annexin V. […] Cells were stained according to the manufacturers recommendations."}, "BLIN-3 cells": {"tested_on": "BLIN-3 cells", "assay": "Loss of mitochondrial transmembrane potential (TMRE) and YO-PRO permeability in BLIN-3", "type": "cell-based, human", "conditions": "BLIN-3, FIG. 2", "method": "Numbers in the histograms indicate the percentage of PI^- cells that underwent a loss of Δψm. Numbers in the contour plots indicate the percentage of Annexin V^+/PI^- cells. […] Numbers in the contour plots indicate the percentage of YO^- PRO^+/PI^- cells. Numbers in the histograms indicate the percentage of PI^- cells that underwent a loss of Δψm. Flow cytometry. Quantitation of apoptotic events was conducted using a FACS Calibur (BD Immunocytometry Systems). All analyses were conducted on cells with lymphoid light scatter characteristics (i.e., low to medium forward scatter and low 90° side scatter). i. Mitochondrial transmembrane potential (Δψm). The cationic lipophilic fluorescent dye tetramethylrhodamine, ethyl ester, perchlorate (TMRE) was purchased from Molecular Probes, Inc. (Eugene, Oreg.). TMRE has a high degree of membrane permeability and accumulates into mitochondria in accord with the Nernstian equation (Farkas Biophys J. 1989;56:1053-1069). Cells were washed once and re-suspended to 0.5-1.0×10^6/ml in X-VIVO 10. TMRE was added to a final concentration of 50 nM and the cells were incubated in the dark at 37° C. for 15 minutes. […] ii. YO-[…]. The green fluorescent DNA intercalant dye YO-PRO-1 (Idziorek J Immunol Methods. 1995;185:249-258) was purchased from Molecular Probes as the Vybrant Apoptosis Assay Kit #4. […]"}, "[1]": {"tested_on": "K-562 erythroleukemia cell line", "assay": "Apoptosis by Annexin V staining and flow cytometry, K-562", "type": "cell-based", "conditions": "K-562, 50 μM, 18 hours", "method": "as §1"}, "[2]": {"tested_on": "PARP (caspase-3/caspase-7 substrate)", "assay": "Western blotting of PARP cleavage in BLIN-3 and BLIN-4L", "type": "cell-based, human", "conditions": "overnight incubation of BLIN-3 and BLIN-4L cells, 50 μM", "method": "Western blotting. This method was conducted essentially as previously described.^20 The antibodies used were: rabbit anti-caspase-2 (catalog # sc-625, Santa Cruz Biotechnology Inc., Santa Cruz, Calif.), rabbit anti-caspase-3 (catalog # 9661, Upstate Cell Signaling Solutions, Waltham, Mass.), rabbit anti-caspase-6 (catalog # 9761, Upstate), rabbit anti-caspase-9 (catalog # 9502, Upstate), mouse anti-PARP (catalog # 556494, Pharmingen), and rabbit anti-Bid (catalog # AF846, R&D Systems). The antibodies to caspase-2 and caspase-9 were generated to the procaspase isoforms, whereas the antibodies to caspase-3 and caspase-6 were generated to cleavage products.\nAs expected, inclusion of 50 μM PCi had no effect. The degree of PARP cleavage in the presence of C9i (greater in BLIN-3 than BLIN-4L) correlated with the percentage of Annexin V+ cells (FIG. 3)."}},
  "note": "The star is where a group is joined. Cbz = O=C(OCc1ccccc1)*; CH2F = FC*",
  "data": [
    {"substance": "Z-LEHD-fmk (Cbz-LEHD-CH2F; SMILES CC(C)C[C@H](NC(=O)OCc1ccccc1)C(=O)N[C@@H](CCC(=O)O)C(=O)N[C@@H](Cc1c[nH]cn1)C(=O)N[C@@H](CC(=O)O)C(=O)CF) [C9i]", "values": [
      {"measurement": "sensitivity (fold-increase in Annexin V+ cells vs DMSO)", "setting": "NALM-6 cells", "result": "sensitive"},
      {"measurement": "enhancement of apoptosis (YO-PRO+/PI− cells, reduced TMRE staining) versus concentration", "setting": "BLIN-3 cells", "result": "dose-dependent"},
      {"measurement": "sensitivity (fold-increase in Annexin V+ cells vs DMSO)", "setting": "[1]", "result": "insensitive"},
      {"measurement": "cleavage of the caspase-3/caspase-7 substrate PARP", "setting": "[2]", "result": "led to cleavage"}
    ]}
  ]
}
